The test system of one data set is TGF-β receptor. Put plainly: TGF-β receptor binding antagonism assay ([125I]TGF-β1) in Balb/c 3T3 cells. As to conditions: for Inhibition Rate (%): 10 μg/ml, 50 pmol/L [125I]TGF-β1. The protocol:
Balb/c 3T3 cells were seeded in 24 well-plate and cultured in Dulbecco's modified Eagle's medium (DMEM) supplemented with 10% fetal bovine serum, in 37° C. and 5% CO2, for 2-4 days. When cells were at a near-confluent, medium was changed to the binding buffer (50 mmol/L HEPES containing NaCl, KCl, MgSO4 and CaCl2). The assay was initiated by addition of 50 pmol/L [^125I]TGF-β1 and test compounds. After incubation for 210-240 minutes, the medium was removed, and cells were washed with ice-cold binding buffer. Non-specific bindings in the presence of 10 nmol/L TGF-β1 were determined. The cells were then solubilized using buffer containing Triton X-100 and the radioactivity was measured (see Table 4).

In brackets after ≈: the same amount, converted by molar mass.

Take `COc1ccc2cc(C(=O)Nc3ccc(C(=O)O)c(O)c3)c(=O)oc2c1` [Compound 7, 3-(3′-hydroxy-4′-carboxyphenylamidocarbonyl)-7-methoxy coumarin]: the melting point is 279 °C (dec.). In the data set on TGF-β receptor, the IC50 worked out at 7.8 µg/mL (≈ 22 µM) and the “Inhibition Rate (%)” value worked out at 94.2%.
The like results for `COc1cc2oc(=O)c(C(=O)Nc3ccc(O)c(C(=O)O)c3)cc2cc1Cl` [Compound 88, 3-(3′-carboxy-4′-hydroxy-phenylamidocarbonyl)-6-chloro-7-methoxy-coumarin] were, in that order, more than 300 °C, 5.3 µg/mL (≈ 13.6 µM) and 111.2%.
